The subject of one data set is Escherichia coli. In words: Inverse agonist activity at PqsR in Escherichia coli […] by measuring remaining activity at 1 uM by cell-based reporter gene assay relative to control. In general terms: A reporter such as luciferase makes a cellular process visible.
In data set [1] the target is T1, Transcriptional regulator MvfR (Pseudomonas aeruginosa PA14, UniProt A0A072ZLE6).
T1 sequence (A0A072ZLE6 whole entry): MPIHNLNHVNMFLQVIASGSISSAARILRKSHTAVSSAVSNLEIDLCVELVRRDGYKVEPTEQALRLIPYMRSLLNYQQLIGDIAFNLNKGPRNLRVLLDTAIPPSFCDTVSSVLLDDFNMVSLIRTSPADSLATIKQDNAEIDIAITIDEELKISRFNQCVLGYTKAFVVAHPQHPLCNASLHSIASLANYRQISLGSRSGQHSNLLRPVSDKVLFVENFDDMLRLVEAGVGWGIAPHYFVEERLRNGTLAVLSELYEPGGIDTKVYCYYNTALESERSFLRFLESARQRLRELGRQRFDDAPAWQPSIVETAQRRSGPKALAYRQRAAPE
Briefly: Inverse agonist activity at PqsR in Pseudomonas aeruginosa assessed as reduction in pyocyanin production.

Data set [2] is described as follows: Inverse agonist activity at PqsR in Escherichia coli […] by cell-based reporter gene assay.
Data set [3] deals with T2, Transcriptional regulator MvfR (Pseudomonas aeruginosa PA14) (UniProt A0A072ZLE6).
T2 sequence (whole entry): T1 sequence (A0A072ZLE6 whole entry)
Briefly: Inverse agonist activity at PqsR in Pseudomonas aeruginosa assessed as reduction in pyocyanin production at 10 uM relative to control. Also on record: scale not given: the % may be the effect or the level left. The following applies: filed as inverse agonist.

Data set [4] is described as follows: Cytotoxicity against HEK293 cells. In kind it is cell-based. As to conditions: human, read-out: LD50 (the source's name).
The nature of data set [5]: Half life in human S9 fraction. The class given is ADME, subcellular.
Data set [6] in a line: Kinetic solubility of compound. The class given is physicochemical. The following applies: read-out: Kinetic_solubility.
The nature of data set [7]: Cytotoxicity against human HepG2 cells. The class given is cell-based. As to conditions: read-out: LD50 (the source's name).
For data set [8], the target named is T2, Transcriptional regulator MvfR (Pseudomonas aeruginosa PA14). Briefly: Inverse agonist activity at PqsR in Pseudomonas aeruginosa assessed as reduction in pyocyanin production at 0.2 uM relative to control. Also noted: scale not given: the % may be the effect or the level left.
In data set [9] the test system is Pseudomonas aeruginosa. In words: Antibiofilm activity against Pseudomonas aeruginosa assessed as reduction in CFU at 0.5 ug/ml. The class given is functional, organism-based. The following applies: dose 0.5 µg/ml.
The test system of data set [10] is Pseudomonas aeruginosa. In words: Antibiofilm activity against Pseudomonas aeruginosa assessed as reduction in CFU at 50 uM in presence of TOB. In kind it is functional, organism-based.
The test system of data set [11] is Pseudomonas aeruginosa. In words: Antibiofilm activity against Pseudomonas aeruginosa assessed as reduction in CFU at 50 uM. The class given is functional, organism-based.

Molecules are shown by their SMILES. Converted amounts (≈) assume the structure as drawn. The source made the active and inactive calls. The rule behind the calls is not given here.

Regarding `Oc1ccc(C#CCNc2ccnc(C(F)(F)F)c2)cc1`, in the data set with Escherichia coli, the Activity is 82%.
Turning to `CCOc1ccc(C#CCNc2ccnc(C(F)(F)F)c2)cc1Cl`, the IC50 (commonly the concentration at which inhibition is half-maximal) was 390 nM in data set [1] and 150 nM in data set [2].
`FC(F)(F)c1cc(NC/C=C/c2ccc(Cl)cc2)ccn1`: the concentration for half-maximal inhibition (IC50) in data set [2] was 479 nM. For the same molecule, the Activity in data set [3] came out at 93%.
As to `Fc1ccc(C#CCNc2ccnc(C(F)(F)F)c2)cc1`, the CC50 in data set [4] and in data set [7] was > 50000 nM each time. The half-life (as a rule, the time in which the quantity being followed falls by half) in data set [5] worked out at 61.2 min. The results for the IC50 in [1] and in [2] were 3470 nM and 141 nM, respectively. The solubility kinetic in [6] is > 200 µM.
In the case of `COc1ccc(C#CCNc2ccnc(C(F)(F)F)c2)cc1C`, the IC50 in [2] was 289 nM. Besides, the Activity in [8] stood at 5%.
Turning to `FC(F)(F)c1cc(NCC#Cc2ccc(Oc3ccccc3)cc2)ccn1`, the CC50 is 10000 nM in [4] and > 25000 nM in [7]. The molecule also registered a half-life in [5] of 53 min. The IC50 in data set [1] was 490 nM; in data set [2] it was 20 nM. The solubility kinetic in data set [6] stood at 13.2 µM (≈ 4.86 µg/mL).
On to `CC(C)Oc1ccc(C#CCNc2ccnc(C(F)(F)F)c2)cc1Cl`, for which the IC50 amounted to 560 nM in data set [1] and 129 nM in data set [2].
With `FC(F)(F)c1cc(NCCCc2ccccc2)ccn1`, the Activity in the data set with Escherichia coli was 52%.
As to `FC(F)(F)c1cc(NCC#Cc2ccc(Cl)cn2)ccn1`, the Activity in the data set on Escherichia coli worked out at 53%.
As to `Fc1ccc(CCCNc2ccnc(C(F)(F)F)c2)cc1`, in data set [4], the CC50 was determined as 25000 nM. This molecule came in with a half-life in data set [5] of 32.7 min. Also, the 50% inhibitory concentration (IC50) is 3650 nM in [1] and 251 nM in data set [2]. Besides, in [6], the solubility kinetic is 93.9 µM (≈ 28 µg/mL).
Turning to `NC[C@H]1O[C@H](O[C@H]2[C@H](O)[C@@H](O[C@H]3O[C@H](CO)[C@@H](O)[C@H](N)[C@H]3O)[C@H](N)C[C@@H]2N)[C@H](N)C[C@@H]1O`, the result in the data set on Pseudomonas aeruginosa [9] was inactive.
Regarding `CCOc1ccc(C#CCNc2ccnc(C(F)(F)F)c2)cc1`, the IC50 was determined as 390 nM in data set [1] and 170 nM in data set [2].
In the case of `FC(F)(F)c1cc(NC/C=C/c2ccc(Cl)nc2)ccn1`, the Activity with Escherichia coli is 81%.
For `FC(F)(F)c1cc(NCC#Cc2ccc(Cl)c(Cl)c2)ccn1`, in the data set with Escherichia coli (filed as inverse agonist), the Activity turned out to be 35%.
Regarding `FC(F)(F)c1cc(NCC#Cc2ccc(Br)cc2)ccn1`, the Activity in the data set on Escherichia coli is 115%.
Consider `Fc1ccc(C#CCNc2ccnc(C(F)(F)F)c2)c(F)c1`, for which the Activity in the data set on Escherichia coli was found to be 70%.
Regarding `Nc1cc(NCCCc2ccc(F)cc2)cc(C(F)(F)F)n1`, in data set [5], the half-life was determined as 56 min. The values for the IC50 in data set [1] and in data set [2] were 6900 nM and 140 nM, respectively.
As to `COc1cccc(CCCNc2ccnc(C(F)(F)F)c2)c1`, in the data set on Escherichia coli, the Activity came out at 59%.
For `COc1ccc(C#CCNc2ccnc(C(F)(F)F)c2)cc1Cl`, the figures for the Activity (in the data set with Escherichia coli (filed as inverse agonist); in [8]) were 29% and 4%, respectively.
Turning to `COc1cccc(C#CCNc2ccnc(C(F)(F)F)c2)c1`, the Activity with Escherichia coli was 58%.
For the molecule `COc1ccc(C#CCNc2ccnc(C(F)(F)F)c2)cc1F`, the IC50 in data set [1] was determined as 3170 nM.
Turning to `FC(F)(F)c1cc(SCC#Cc2ccc(Cl)cc2)ccn1`, the CC50 in data set [4] and in data set [7] was > 100000 nM throughout. Further, the half-life in [5] came to 43.9 min. In addition, the solubility kinetic in data set [6] worked out at 42.4 µM (≈ 13.9 µg/mL).
As for `FC(F)(F)c1cc(NCCCc2ccc(Cl)cc2)ccn1`, the IC50 is 1050 nM in [1] and 149 nM in data set [2].
For `CC(C)Oc1ccc(C#CCNc2ccnc(C(F)(F)F)c2)cc1F`, the result in the data set with Pseudomonas aeruginosa [10] and with Pseudomonas aeruginosa [11] was Active. Further, the CC50 was 61900 nM in data set [4] and 69800 nM in data set [7]. This molecule showed a half-life in data set [5] of 25.3 min. The IC50 in data set [1] was 440 nM; in [2], 80 nM. Besides, the solubility kinetic in [6] is 58.8 µM (≈ 20.7 µg/mL).
Regarding `FC(F)(F)c1cc(NCCCc2ccc(Oc3ccccc3)cc2)ccn1`, the Activity with Escherichia coli (filed as inverse agonist) is -41%; in data set [8], 0%.
For `CC(C)Oc1ccc(C#CCNc2ccnc(C(F)(F)F)c2)cc1`, the IC50 in data set [1] is 650 nM.
Regarding `CCOc1ccc(C#CCNc2ccnc(C(F)(F)F)c2)cc1F`, in data set [4], the CC50 turned out to be 56900 nM. This molecule gave a half-life in [5] of 13 min. Further, the IC50 in data set [1] stood at 250 nM. The solubility kinetic in data set [6] was 60.4 µM (≈ 20.4 µg/mL).
As to `FC(F)(F)c1cc(NCc2cn(-c3ccc(Oc4ccccc4)cc3)nn2)ccn1`, in data set [5], the half-life is 169 min.
On to `COc1ccc(C#CCNc2ccnc(C(F)(F)F)c2)cc1`, for which the Activity with Escherichia coli (filed as inverse agonist) came out at 8%.
The same measure, in the same setting: the value for `FC(F)(F)c1cc(NC/C=C\c2ccc(Cl)nc2)ccn1` was 45%.
With `FC(F)(F)c1cc(NCC#Cc2ccc(Cl)cc2)ccn1`, the IC50 is 7970 nM in data set [1] and 281 nM in data set [2].
Turning to `FC(F)(F)c1cc(NCC#Cc2ccc(Cl)nc2)ccn1`, the Activity in the data set on Escherichia coli (filed as inverse agonist) was 33%.
For `FC(F)(F)c1cc(NC/C=C/c2ccc(Oc3ccccc3)cc2)ccn1`, the IC50 in data set [1] came out at 3830 nM; in data set [2], 464 nM.
Consider `Fc1cccc(C#CCNc2ccnc(C(F)(F)F)c2)c1`, for which the IC50 in data set [2] worked out at 222 nM.

The record behind these values is ChEMBL document CHEMBL5032519, “Divergent synthesis and biological evaluation of 2-(trifluoromethyl)pyridines as virulence-attenuating inverse agonists targeting PqsR” (Eur J Med Chem, 2021).
